pIC50: −log10 of the molar value.
Tests used:
PANC-1 cells [1] = test: Neurotensin Proliferation Assay (BrdU incorporation, FACS); assay type: cell-based, human; conditions: 5 μM compound, 50 nM neurotensin
Protocol: Neurotensin Proliferation Assay
BrdU incorporation into PANC-1 cells was used to measure DNA synthesis and thus the level of cell proliferation. Cells were seeded in 10 cm^2 cell culture dishes in (1×10^6 cells/well in E4+10% FCS). After serum starvation (24 hours), cells were treated with an amino-ethyl-amino-aryl (AEAA) compound for 1 hour before addition of neurotensin (50 nM final concentration). Cells were then incubated for a further 23 hours before addition of BrdU (10 μM) for the final 1 hour. Samples were fixed using 70% ethanol and labelled with an anti-BrdU antibody (Becton Dickinson Cat No. 347580, Lot No. 13467) followed by a rabbit polyclonal anti-mouse-FITC antibody (DakoCytomation Cat No. F0313, Lot No. 00015066) and propidium iodide. Samples were then analysed by Fluorescent Activated Cell Sorting (FACS). The measured fluorescence was directly proportional to the incorporated BrdU.
FIG. 6 is a graphic representation of the results of the neurotensin proliferation assay. The columns in the graph represent the mean percentage of BrdU incorporation into PANC-1 cells as a measure for cell proliferation. The two left-hand columns represent the controls of DMSO (basal level of non-stimulated cell proliferation) and DMSO plus 50 nM neurotensin (stimulated cell proliferation). […]

PANC-1 cells [2] = test: Apoptosis Assay (Caspase-Glo caspase 3/7 activity); assay type: cell-based, human; conditions: 5 μM, 48 hours
Protocol: PANC-1 cells were seeded into 96 well plates (1×10^4 cells/well in E4+10% FCS) and placed in an incubator at 37° C., 5% CO2 overnight. Cells were serum starved (E4+0.5% FCS) for 16 hours and then treated with an amino-ethyl-amino-aryl (AEAA) compound in full media for 1 hour prior to treatment with Neurotensin (NT; 50 nM) for a further 23 hours or 47 hours (in E4+0.5% FCS; total exposure to test compound was 24 hours or 48 hours). Cells were then assayed for Caspase3/7 activity (Caspase-Glo; Promega) according to the manufacturer's instructions.
The Caspase-Glo assay is a homogenous luminescent assay that measures caspase 3 and 7 activities. […] When added to the cell samples, these reagents result in cell lysis, followed by caspase cleavage of the substrate and generation of a luminescent signal produced by luciferase, whereby the luminescence is proportional to the amount of caspase activity present. […]
The depicted columns show the change in viability or induction of apotosis in the presence of an amino-ethyl-amino-aryl (AEAA) compound (XX-032). Cell viability was measured by the MTT assay at two different time points (24 and 48 hours) and induction of apoptosis was measured by the caspase assay at two different time points (24 and 48 hours). The data are expressed as a percentage of the level in the corresponding control.

PANC-1 cells [3] = test: MTT Assay (cell viability); assay type: cell-based, human; conditions: 5 μM, 48 hours
Protocol: The MTT (3-[4,5-dimethylthiazol-2-yl]-2,5-diphenyltetrazolium bromide) assay can be used to assess the effect of compounds on cell viability and proliferation and to determine whether a compound is cytotoxic. In living cells, the tetrazolium salt (MTT) is reduced to a coloured formazan product (1-[4,5-dimethylthiazol-2-yl]3,5-diphenylformazan), which can be quantified. The reduction of MTT is attributed to the mitochondrial function of cells.
PANC-1 cells were seeded into 96 well plates (1×10^4 cells/well in E4+10% FCS) and placed in an incubator at 37° C., 5% CO2 overnight. Cells were serum starved (E4+0.5% FCS) for 16 hours and then treated with an amino-ethyl-amino-aryl (AEAA) compound (XX-032) in full media for 1 hour prior to treatment with Neurotensin (50 nM) for a further 23 hours or 47 hours (in E4+0.5% FCS; total exposure to test compound was 24 hours or 48 hours; 37° C. 5% CO2). At the appropriate timepoint plates were removed from the incubator and the media was aspirated off. 50 μL per well of 2 mg/mL MTT solution was added and the plates were placed back into the incubator for 2.5 to 4 hours. After incubation, the plates were removed from the incubator and the MTT solution was completely aspirated off the cells. […] The plates were read in a 96 well plate reader at 562 nm (Lab Systems, Ascent Multiscan).

[4] = biological target: T1, PKD1 Ser916 phosphorylation in PANC-1 cells (Homo sapiens, UniProt Q15139); test: Western Blot 916 (Phospho-Ser916 PKD1) Assay in PDBu-stimulated PANC-1 cells; assay type: cell-based; conditions: 2-30 μM compound for 1 hour, then 200 nM PDBu 10 minutes, densitometry of western blot, read-out: IC50 for inhibition of PDBu-stimulated PKD1 Ser916 phosphorylation
T1 construct: endogenous in cells; host or cells: PANC-1 (ATCC CRL-1469)
T1 sequence (Q15139 1-912): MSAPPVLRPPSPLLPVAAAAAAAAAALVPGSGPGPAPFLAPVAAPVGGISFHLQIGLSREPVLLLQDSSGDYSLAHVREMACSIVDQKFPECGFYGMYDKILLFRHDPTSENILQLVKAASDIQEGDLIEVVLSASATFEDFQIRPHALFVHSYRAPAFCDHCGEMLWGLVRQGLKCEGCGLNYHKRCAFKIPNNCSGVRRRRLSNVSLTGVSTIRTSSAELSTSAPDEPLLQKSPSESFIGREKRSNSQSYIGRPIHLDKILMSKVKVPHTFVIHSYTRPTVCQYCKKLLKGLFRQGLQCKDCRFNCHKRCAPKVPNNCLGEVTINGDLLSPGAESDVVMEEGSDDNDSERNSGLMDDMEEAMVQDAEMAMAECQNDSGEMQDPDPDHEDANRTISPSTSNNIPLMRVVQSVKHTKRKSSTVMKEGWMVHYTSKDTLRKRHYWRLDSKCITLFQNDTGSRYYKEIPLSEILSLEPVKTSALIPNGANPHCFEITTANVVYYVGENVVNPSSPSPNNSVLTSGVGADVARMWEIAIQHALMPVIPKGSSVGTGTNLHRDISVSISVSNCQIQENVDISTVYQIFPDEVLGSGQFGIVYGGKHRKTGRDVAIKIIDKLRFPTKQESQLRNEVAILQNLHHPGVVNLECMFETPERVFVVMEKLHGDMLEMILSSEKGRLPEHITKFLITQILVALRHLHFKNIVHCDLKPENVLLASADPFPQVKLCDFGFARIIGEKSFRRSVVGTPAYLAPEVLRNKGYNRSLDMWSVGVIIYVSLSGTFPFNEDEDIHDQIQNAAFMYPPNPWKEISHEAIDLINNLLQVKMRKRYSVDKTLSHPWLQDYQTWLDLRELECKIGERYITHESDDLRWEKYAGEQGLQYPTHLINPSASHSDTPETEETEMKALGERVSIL
Protocol: Western Blot 916 (Phospho-Ser916 PKD1) Assay
PANC-1 (ATCC CRL-1469) cells were seeded in 6 well plates. After overnight serum starvation of cells, cells were washed twice in 1 mL serum-free media per well, then treatments were added in serum-free media.
Cells were treated with 2 μM, 5 μM, 10 μM, or 30 μM of an amino-ethyl-amino-aryl (AEAA) compound or with 3 μM GF1 (2-[1-(3-Dimethylaminopropyl)-1H-indol-3-yl]-3-(1H-indol-3-yl)-maleimide, a PKC inhibitor), for comparison purposes, for 1 hour. Then, 200 nM PDBu (phorbol, 12,13-dibutyrate) was added to the wells for 10 minutes. Two wells were used per treatment.
Cells were then scraped into lysis buffer (40 μL per well), samples were homogenised, and protein concentration determined. […]
FIG. 4 is a photographic depiction of the western blot analysis of cell lysates of PANC-1 cells which were treated with increasing amounts (2, 5, 10, 30 μM) of an amino-ethyl-amino-aryl (AEAA) compound (XX-032). Cell lysates were analysed using an anti-PKD1 Antibody (middle panel), anti-phospho-PKD1 (Ser916) Antibody (top panel) and anti-tubulin antibody (lower panel).
The shown columns represent the percentage phosphorylation as measured by densitometry of phospho-PKD1 (Ser916) levels. The results were normalised to the measured PKD1 levels and expressed as a percentage of the level of phosphorylation in the PDBu-stimulated control.

[5] = biological target: T2, Murine PKD1 kinase domain (Mus musculus, UniProt Q62101, R683W); test: PKD1 (Murine Kinase Domain) Enzyme Activity Assay (IMAP fluorescence polarisation); assay type: biochemical; conditions: 10 μM ATP, 10 point dose-response
T2 construct: hexahistidine (His6, pFastBac HTb leader) (N); made in house; host or cells: Sf9 insect cells, baculovirus (Bac-to-Bac HT)
T2 sequence (Q62101 with tags, fused parts or gaps R683W): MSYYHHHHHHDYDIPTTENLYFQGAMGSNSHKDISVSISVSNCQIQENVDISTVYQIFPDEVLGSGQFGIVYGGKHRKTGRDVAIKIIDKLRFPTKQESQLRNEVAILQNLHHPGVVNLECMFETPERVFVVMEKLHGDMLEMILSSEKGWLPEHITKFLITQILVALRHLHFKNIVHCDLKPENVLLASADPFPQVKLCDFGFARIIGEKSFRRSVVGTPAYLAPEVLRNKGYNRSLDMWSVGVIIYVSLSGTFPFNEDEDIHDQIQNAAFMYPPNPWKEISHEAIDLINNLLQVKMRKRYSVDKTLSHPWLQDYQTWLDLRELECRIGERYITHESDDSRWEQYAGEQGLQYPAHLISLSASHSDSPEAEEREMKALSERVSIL
Text: The DNA sequence corresponding to murine PKD1 (see FIG. 1) was inserted into pFastBAc Htb (Invitrogen, USA) at BamH1 and EcoR1 sites using standard molecular biology techniques.
The PKD1 described above was expressed as a hexahistidine tagged protein construct using a commercially available baculoviral expression system that induces protein production in insect cell culture (Bac-to-Bac® HT Baculovirus Expression System, Invitrogen). Protein was typically expressed by inoculating 1 L of sf9 cells with a genetically modified baculovirus containing the gene for the kinase domain of PKD1. Sf9 cells were obtained from ICR Ltd.
Purification of PKD1 was achieved by standard chromatographic procedures. Capture from crude centrifuged lysed cell supernatant was achieved using metal affinity chromatography (GE Healthcare Life Sciences, HiTrap Chelating chromatography column), and fractions showing PKD1 (as assessed by gel electrophoresis and western blot) were further purified by a single purification step. This was a performed using a mono Q anion exchange chromatography system (GE Healthcare Life Sciences, HiTrap HP Q column). […] This protocol describes the method for screening compounds as inhibitors of Protein Kinase D activity in a 384 well microplate format fluorescence polarisation IMAP assay performed using the Biomek FX. […]

| Structure (SMILES) | Neurotensin-stimulated PANC-1 proliferation (BrdU incorporation) (PANC-1 cells [1]) | increase in caspase 3/7 activity (PANC-1 cells [2]) [fold] | decrease in cell viability (MTT) (PANC-1 cells [3]) [fold] | pIC50 [4] | pIC50 [5] |
| --- | --- | --- | --- | --- | --- |
| CC[C@@H](N)CNc1nc(-c2cc(Cl)ccc2O)nc2ccccc12 [XX-032, 2-[4-((R)-2-Amino-butylamino)-quinazolin-2-yl]-4-chloro-phenol] | inhibited to basal levels | 5 | 2 | ~5.40 | – |
| NCCNc1nc(-c2cc(Cl)ccc2O)nc2ccccc12 [XX-097, 2-[4-(2-Amino-ethylamino)-quinazolin-2-yl]-4-chloro-phenol] | – | – | – | – | 7.80 |

Source: US20090247519A1, “AMINO-ETHYL-AMINO-ARYL (AEAA) COMPOUNDS AND THEIR USE” (priority 2006, published 2009)
